From BindingDB's records for doi:10.1021/jm000271k (Parke-Davis Pharmaceutical Research, 2000)
pIC50: −log10 of the molar value.

Molecular target: Cyclin-dependent kinase 4/G1/S-specific cyclin-D1 [L188C] (Homo sapiens, UniProt P11802)
Experiment: CDKs Assay
Method: The enzyme was assayed with substrate GST- retinoblastoma in the presence of 25 uM ATP/[gamma-32P] ATP. IC50 is the inhibitor concentration, which inhibits 50% of enzyme activity that catalyzes the transfer of the terminal phosphate from [gamma-32P] labeled ATP to GST- retinoblastoma. Use of 32P-labeled ATP allows this transfer to be monitored by scintillation counting.

SMILES | pIC50 | pIC50 (pH 7.4, 25 °C)
CCCn1c(=O)ccc2cnc(Nc3ccccc3)nc21 [2-(phenylamino)-8-propyl-7H,8H-pyrido[2,3-d]pyrimidin-7-one] | 6.26 | –
CCn1c(=O)ccc2cnc(NC(C)(C)C)nc21 [2-(tert-butylamino)-8-ethyl-7H,8H-pyrido[2,3-d]pyrimidin-7-one] | – | 5.28
CCN(CC)CCOc1ccc(Nc2ncc3ccc(=O)n(C(C)C)c3n2)cc1 [2-({4-[2-(diethylamino)ethoxy]phenyl}amino)-8-(propan-2-yl)-7H,8H-pyrido[2,3-d]pyrimidin-7-one] | 7.35 | –
CCN(CC)CCOc1ccc(Nc2ncc3ccc(=O)n(CC)c3n2)cc1 [2-({4-[2-(diethylamino)ethoxy]phenyl}amino)-8-ethyl-7H,8H-pyrido[2,3-d]pyrimidin-7-one] | – | 6.80
CCn1c(=O)ccc2cnc(NC3CCCCC3)nc21 [2-Cyclohexylamino-8-ethyl-8H-pyrido[2,3-d]pyrimidin-7-one] | – | 5.48
CCn1c(=O)ccc2cnc(Nc3ccc(N(C)C)cc3)nc21 [2-{[4-(dimethylamino)phenyl]amino}-8-ethyl-7H,8H-pyrido[2,3-d]pyrimidin-7-one] | – | 6.48
O=c1ccc2cnc(Nc3ccccc3)nc2n1C1CC2CCC1C2 (configuration not stated) [8-Bicyclo[2.2.1]hept-2-yl-2-phenylamino-8H-pyrido[2,3-d]pyrimidin-7-one] | 7.42 | –
CCCCn1c(=O)ccc2cnc(Nc3ccccc3)nc21 [8-Butyl-2-phenylamino-8H-pyrido[2,3-d]pyrimidin-7-one] | 5.83 | –
O=c1ccc2cnc(Nc3ccccc3)nc2n1C1CCCCC1 [8-Cyclohexyl-2-phenylamino-8H-pyrido[2,3-d]pyrimidin-7-one] | 7.33 | –
CCn1c(=O)ccc2cnc(Nc3cccc(F)c3)nc21 [8-Ethyl-2-(3-fluorophenylamino)-8H-pyrido[2,3-d]pyrimidin-7-one] | – | 5.85
CCn1c(=O)ccc2cnc(Nc3ccc(N4CCOCC4)cc3)nc21 [8-Ethyl-2-(4-(morpholin-4-yl)phenylamino)-8H-pyrido[2,3-d]pyrimidin-7-one] | 6.52 | –
CCn1c(=O)ccc2cnc(Nc3cccc(OC(F)(F)C(F)F)c3)nc21 [8-Ethyl-2-[3-(1,1,2,2-tetrafluoroethoxy)phenylamino]-8H-pyrido[2,3-d]pyrimidin-7-one] | – | 5.11
CCn1c(=O)ccc2cnc(Nc3ccc(N4CCN(C)CC4)cc3)nc21 [8-Ethyl-2-[4-(4-methylpiperazin-1-yl)phenylamino]-8H-pyrido[2,3-d]pyrimidin-7-one] | 7.07 | –
CC(C)n1c(=O)ccc2cnc(Nc3ccc(N4CCN(C)CC4)cc3)nc21 [8-Isopropyl-2-[4-(4-methylpiperazin-1-yl)phenylamino]-8H-pyrido[2,3-d]pyrimidin-7-one] | 7.49 | –
Cn1c(=O)ccc2cnc(Nc3ccccc3)nc21 [8-Methyl-2-phenylamino-8H-pyrido[2,3-d]pyrimidin-7-one] | 5.26 | –
O=c1ccc2cnc(Nc3ccccc3)nc2n1CC1CO1 (configuration not stated) [8-Oxiranylmethyl-2-phenylamino-8H-pyrido[2,3-d]pyrimidin-7-one] | 5.30 | –
O=c1ccc2cnc(Nc3ccccc3)nc2n1Cc1ccccc1 [8-benzyl-2-(phenylamino)-7H,8H-pyrido[2,3-d]pyrimidin-7-one] | 6.03 | –
O=c1ccc2cnc(Nc3ccccc3)nc2n1C1CCCCCC1 [8-cycloheptyl-2-(phenylamino)-7H,8H-pyrido[2,3-d]pyrimidin-7-one] | 6.74 | –
O=c1ccc2cnc(Nc3ccccc3)nc2n1C1CCCC1 [8-cyclopentyl-2-(phenylamino)-7H,8H-pyrido[2,3-d]pyrimidin-7-one] | 6.68 | –
CCNc1ncc2ccc(=O)n(CC)c2n1 [8-ethyl-2-(ethylamino)-7H,8H-pyrido[2,3-d]pyrimidin-7-one] | – | 4.92
CCn1c(=O)ccc2cnc(Nc3ccc(F)cc3)nc21 [8-ethyl-2-[(4-fluorophenyl)amino]-7H,8H-pyrido[2,3-d]pyrimidin-7-one] | – | 5.91
CCn1c(=O)ccc2cnc(Nc3ccc(OC)cc3)nc21 [8-ethyl-2-[(4-methoxyphenyl)amino]-7H,8H-pyrido[2,3-d]pyrimidin-7-one] | – | 6.22
